Patent US12285526B2, “Nanoparticle composition with reduced contaminant and production method thereof” (Shionogi & Co., Ltd., priority 2019, dated 2025)

Assay: Particle size of drug particles after bead mill grinding (Microtrac UPA 150 M)
Format: physicochemical
Conditions: slurry with PVP K-25 3 w/w % and sodium lauryl sulfate 0.25 w/w % in water, pH 6.07-10.37; zirconia beads 0.5 mm; ground 120 minutes
Experimental: Phenitoin (Shizuoka Caffein Co., Ltd.) (7.5 g, 5 w/w %) as a drug, polyvinylpyrrolidone (PVP K-25, BASF Japan Ltd.) (4.5 g, 3 w/w %) as a polymer compound, sodium lauryl sulfate (Cognis Japan Ltd.) (0.375 g, 0.25 w/w %) as a surfactant were dispersed in 137.6 g of purified water to prepare a slurry. The pH of the slurry was 3.88. The pH was adjusted by adding 1N aqueous sodium hydroxide solution to this slurry, and samples having various pH (pH 6.07, 6.68, 7.36, 8.14, 8.96, 10.37) were prepared.
Each sample (100 g) and beads (217.3 g, filling ratio 70%) were charged into Dyno-mill Research Lab (manufactured by WAB), and the grinding process by the bead mill was carried out for 120 minutes (disc peripheral speed: 4 m/s, temperature: 20° C., fluid speed: 45 g/min). The beads used for the grinding process were YTZ ball (zirconia beads manufactured by Nikkato Corporation, with diameter of 0.5 mm). As used herein, the term “filling ratio” refers to the ratio (in percentage) of the true volume to the bulk volume of the beads, and hereinafter the same is applied.
The particle size of the drug particles after the grinding process was nano-order of less than 1 μm (D50 value). The particle size was determined using Microtrac UPA 150 M (MicrotracBEL Corp.). […]

O=C1NC(=O)C(c2ccccc2)(c2ccccc2)N1 [Phenitoin, Phenytoin]
particle size of the drug particles after the grinding process (D50 value): less than 1 μm
